Test results taken from patent publication US11427561B2, “IRAK4 inhibiting agents” (BIOGEN MA INC., priority 2016, dated 2022).
Where a name gives a salt, the structure may show the parent alone.

Assays:
A549 cells = assay: Cell-based assay: IL-6 ELISA quantification in A549 cells stimulated with human IL-1beta; conditions: 2 ng/ml human IL-1beta overnight
Protocol: Cell-based Assay: The cell-based assays is based on IL-6 ELISA quantification. Briefly, A549 cells are cultured in DMEM with 10% FBS medium. When cells reach 80% confluence they are trypsin treated and seeded 180 ul/well in 96-well plate at 2.5×10^4 cells/well. Then, 20 ul of compound serial dilutions (starting at 10 uM, 10 points) are added to the cell plate; incubate for 30 min at 37 C and stimulated with 2 ng/ml human IL-1beta 37 C, 5% CO2 overnight. The next day 100 ul of cell supernatant per well are analyzed on a Human IL-6 Quantikine ELISA kit from R&D Systems.
The compounds described herein were tested for in the above biochemical and cell-based assays.

IRAK4 = IRAK4 (Homo sapiens (Human), UniProt Q9NWZ3); assay: IRAK-4 biochemical assay, AlphaScreen format (phosphorylation of a biotin labeled peptide); conditions: 1 nM IRAK4, 1.6 μM peptide, 1 mM ATP, 3.5 h at RT
IRAK4, sequence (Q9NWZ3 whole entry, species assumed): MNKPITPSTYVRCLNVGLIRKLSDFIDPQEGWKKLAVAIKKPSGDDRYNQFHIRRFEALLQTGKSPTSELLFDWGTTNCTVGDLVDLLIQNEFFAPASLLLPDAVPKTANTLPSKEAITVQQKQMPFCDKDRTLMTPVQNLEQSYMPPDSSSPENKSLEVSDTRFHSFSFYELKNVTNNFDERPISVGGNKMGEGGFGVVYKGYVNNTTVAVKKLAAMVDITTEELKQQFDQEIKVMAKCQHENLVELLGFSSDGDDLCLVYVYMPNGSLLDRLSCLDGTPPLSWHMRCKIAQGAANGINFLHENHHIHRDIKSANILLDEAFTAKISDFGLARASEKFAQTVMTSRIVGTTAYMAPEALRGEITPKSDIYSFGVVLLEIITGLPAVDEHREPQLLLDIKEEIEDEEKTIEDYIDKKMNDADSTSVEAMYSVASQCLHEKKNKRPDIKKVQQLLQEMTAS
Protocol: Biochemical Assay: The biochemical assay is in a AlphaScreen format. The kinase reaction is based on the IRAK-4 phosphorylation of a biotin labeled peptide. The phosphopeptide is incubated with anti-phosphothreonine antibody as well as streptavidin- and protein A-coated beads. Binding of the protein-A coated beads to the antibody and the streptavidin beads to the peptide, leads to an energy transfer from one bead to the other, ultimately producing a luminescent/fluorescent signal.
Generally, the kinase reaction is carried out at 1 nM IRAK4, 1.6 μM peptide, 1 mM ATP in reaction buffer 50 mM Hepes, 60 mM NaCl, 5 mM MgCl2, 0.25 mM MnCl2, 2 mM DTT, 0.01% BSA, 0.01% Tween-20) for 3.5 h at RT.
The compounds described herein were tested for in the above biochemical assay.

Compound | EC50 (A549 cells; Homo sapiens, A549, A549 cells) [nM] | IC50 (IRAK4) [nM] | EC50 (A549 cells; A549 cells) [nM]
NC(c1cccc(-c2ccc3cnn(-c4cccc(CO)n4)c3c2)n1)C1CCC(O)C1 (single isomer, unassigned) [Compound 21, 3-(amino(6-(1-(6-(hydroxymethyl)pyridin-2-yl)-1H-indazol-6-yl)pyridin-2-yl)methyl)cyclopentanol-A] | ≤ 1000 | ≤ 100 | 
NC(c1cccc(-c2ccc3cnn(-c4cccc(CO)n4)c3c2)n1)C1CCC(O)C1 (single isomer, unassigned) [Compound 22, 3-(amino(6-(1-(6-(hydroxymethyl)pyridin-2-yl)-1H-indazol-6-yl)pyridin-2-yl)methyl)cyclopentanol-B] |  | ≤ 100 | 1000 to 10000
NC(c1cccc(-c2ccc3cnn(-c4cccc(CO)n4)c3c2)n1)C1CCC(O)C1 (single isomer, unassigned) [Compound 23, 3-(amino(6-(1-(6-(hydroxymethyl)pyridin-2-yl)-1H-indazol-6-yl)pyridin-2-yl)methyl)cyclopentanol-C] |  | ≤ 100 | ≤ 1000
N[C@H](c1cccc(-c2ccc3cnn(-c4cccc(CO)n4)c3c2)n1)C1CC(CO)C1 (stereo partly drawn) [Compound 1, (S)-(6-(6-(6-(amino(3-(hydroxymethyl)cyclobutyl)methyl)pyridin-2-yl)-1H-indazol-1-yl)pyridin-2-yl)methanol] | ≤ 1000 | ≤ 100 | 
N[C@@H](c1cccc(-c2ccc3cnn(-c4cccc(CO)n4)c3c2)n1)C1CC(CO)C1 (stereo partly drawn) [Compound 2, (R)-(6-(6-(6-(amino(3-(hydroxymethyl)cyclobutyl)methyl)pyridin-2-yl)-1H-indazol-1-yl)pyridin-2-yl)methanol] | ≤ 1000 | ≤ 100 | 
N[C@H](c1cccc(-c2ccc3cnn(-c4cccc(CO)n4)c3c2)n1)C1CC(CO)C1 (stereo partly drawn) [Compound 3, (S)-(6-(6-(6-(amino(3-(hydroxymethyl)cyclobutyl)methyl)pyridin-2-yl)-1H-indazol-1-yl)pyridin-2-yl)methanol] |  |  | ≤ 1000
N[C@H](c1cccc(-c2ccc3cnn(-c4cccc(CO)n4)c3c2)n1)[C@H]1C[C@@H](O)C1 [Compound 4, cis-3-((S)-amino(6-(1-(6-(hydroxymethyl)pyridin-2-yl)-1H-indazol-6-yl)pyridin-2-yl)methyl)cyclobutanol] | ≤ 1000 | ≤ 100 | 
N[C@@H](c1cccc(-c2ccc3cnn(-c4cccc(CO)n4)c3c2)n1)[C@H]1C[C@@H](O)C1 [Compound 5, (cis)-3-((R)-amino(6-(1-(6-(hydroxymethyl)pyridin-2-yl)-1H-indazol-6-yl)pyridin-2-yl)methyl)cyclobutan-1-ol hydrochloride] | ≤ 1000 | ≤ 100 | 
N[C@H](c1cccc(-c2ccc3cnn(-c4cccc(CO)n4)c3c2)n1)[C@H]1C[C@H](O)C1 [Compound 6, trans-3-((S)-amino(6-(1-(6-(hydroxymethyl)pyridin-2-yl)-1H-indazol-6-yl)pyridin-2-yl)methyl)cyclobutanol] | ≤ 1000 | ≤ 100 | 
N[C@@H](c1cccc(-c2ccc3cnn(-c4cccc(CO)n4)c3c2)n1)[C@H]1C[C@H](O)C1 [Compound 7, trans-3-((R)-amino(6-(1-(6-(hydroxymethyl)pyridin-2-yl)-1H-indazol-6-yl)pyridin-2-yl)methyl)cyclobutanol] | ≤ 1000 | ≤ 100 | 
N[C@H](c1cccc(-c2ccc3cnn(-c4nccc(CO)n4)c3c2)n1)[C@H]1C[C@@H](O)C1 [Compound 8, (1R,3S)-3-((S)-amino(6-(1-(4-(hydroxymethyl)pyrimidin-2-yl)-1H-indazol-6-yl)pyridin-2-yl)methyl)cyclobutanol] | ≤ 1000 | ≤ 100 | 
N[C@H](c1cccc(-c2ccc3cnn(-c4cncc(CO)n4)c3c2)n1)[C@H]1C[C@@H](O)C1 [Compound 9, cis 3-((S)-amino(6-(1-(6-(hydroxymethyl)pyrazin-2-yl)-1H-indazol-6-yl)pyridin-2-yl)methyl)cyclobutanol] | ≤ 1000 | ≤ 100 | 
N[C@H](c1cccc(-c2ccc3cnn(-c4cccc(C(F)(F)F)n4)c3c2)n1)[C@H]1C[C@@H](O)C1 [Compound 10, (1R,3S)-3-((S)-amino(6-(1-(6-(trifluoromethyl)pyridin-2-yl)-1H-indazol-6-yl)pyridin-2-yl)methyl)cyclobutanol] | ≤ 1000 | ≤ 100 | 
CCc1ccnc(-n2ncc3ccc(-c4cccc([C@@H](N)[C@H]5C[C@@H](O)C5)n4)cc32)n1 [Compound 11, (1R,3S)-3-((S)-amino(6-(1-(4-ethylpyrimidin-2-yl)-1H-indazol-6-yl)pyridin-2-yl)methyl)cyclobutanol] | ≤ 1000 | 100 to 1000 | 
CCc1cccc(-n2ncc3ccc(-c4cccc([C@@H](N)[C@H]5C[C@@H](O)C5)n4)cc32)n1 [Compound 12, (1R,3s)-3-((S)-amino(6-(1-(6-ethylpyridin-2-yl)-1H-indazol-6-yl)pyridin-2-yl)methyl)cyclobutanol] | 1000 to 10000 | ≤ 100 | 
N[C@H](c1cccc(-c2ccc3cnn(-c4nccc(C(F)(F)F)n4)c3c2)n1)[C@H]1C[C@@H](O)C1 [Compound 13, (1R,3s)-3-((S)-amino(6-(1-(4-(trifluoromethyl)pyrimidin-2-yl)-1H-indazol-6-yl)pyridin-2-yl)methyl)cyclobutanol] | ≤ 1000 | ≤ 100 | 
N[C@H](c1cccc(-c2ccc3cnn(-c4cccc(C(F)F)n4)c3c2)n1)[C@H]1C[C@@H](O)C1 [Compound 14, cis-3-((S)-amino(6-(1-(6-(difluoromethyl)pyridin-2-yl)-1H-indazol-6-yl)pyridin-2-yl)methyl)cyclobutanol] | ≤ 1000 | ≤ 100 | 
CCc1cncc(-n2ncc3ccc(-c4cccc([C@@H](N)[C@H]5C[C@@H](O)C5)n4)cc32)n1 [Compound 15, (1R,3s)-3-((S)-amino(6-(1-(6-ethylpyrazin-2-yl)-1H-indazol-6-yl)pyridin-2-yl)methyl)cyclobutanol] | ≤ 1000 | ≤ 100 | 
N[C@H](c1cncc(-c2ccc3cnn(-c4cccc(CF)n4)c3c2)n1)[C@H]1C[C@@H](O)C1 [Compound 18, cis-3-((S)-amino(6-(1-(6-(fluoromethyl)pyridin-2-yl)-1H-indazol-6-yl)pyrazin-2-yl)methyl)cyclobutanol] |  | 100 to 1000 | 
N[C@H](c1cncc(-c2ccc3cnn(-c4cccc(C(F)(F)F)n4)c3c2)n1)[C@H]1C[C@@H](O)C1 [Compound 19, cis-3-((S)-amino(6-(1-(6-(trifluoromethyl)pyridin-2-yl)-1H-indazol-6-yl)pyrazin-2-yl)methyl)cyclobutanol] |  | ≤ 100 | 
N#CC1(c2cccc(-n3ncc4ccc(-c5cccc([C@@H](N)[C@H]6C[C@@H](O)C6)n5)cc43)n2)CC1 [Compound 20, 1-(6-(6-(6-((S)-amino(cis-3-hydroxycyclobutyl)methyl)pyridin-2-yl)-1H-indazol-1-yl)pyridin-2-yl)cyclopropanecarbonitrile] |  | ≤ 100 | 
N[C@@H](c1cccc(-c2ccc3cnn(-c4cccc(CO)n4)c3c2)n1)C1(F)CCC1 [Compound 31, (S)-(6-(6-(6-(amino(1-fluorocyclobutyl)methyl)pyridin-2-yl)-1H-indazol-1-yl)pyridin-2-yl)methanol] |  | ≤ 100 | 
N[C@H](c1cccc(-c2ccc3cnn(-c4cccc(CO)n4)c3c2)n1)C1(F)CCC1 [Compound 32, (R)-(6-(6-(6-(amino(1-fluorocyclobutyl)methyl)pyridin-2-yl)-1H-indazol-1-yl)pyridin-2-yl)methanol] |  | ≤ 100 | 
N[C@H](c1cccc(-c2ccc3cnn(-c4cccc(CO)n4)c3c2)n1)C1(F)CCC1 [Compound 35c, (R)-(6-(6-(6-(amino(1-fluorocyclobutyl)methyl)pyridin-2-yl)-1H-indazol-1-yl)pyridin-2-yl) methanol] | 1000 to 10000 |  | 
N[C@@H](c1cccc(-c2ccc3cnn(-c4cccc(CO)n4)c3c2)n1)C1(F)CCC1 [Compound 35d, (S)-(6-(6-(6-(amino(1-fluorocyclobutyl)methyl)pyridin-2-yl)-1H-indazol-1-yl)pyridin-2-yl) methanol] | ≤ 1000 |  | 
CO[C@H]1C[C@H]([C@H](N)c2cccc(-c3ccc4cnn(-c5cccc(C(F)F)n5)c4c3)n2)C1 [Compound 35j, (S)-(6-(1-(6-(difluoromethyl)pyridin-2-yl)-1H-indazol-6-yl)pyridin-2-yl)((1R,3S)-3-methoxycyclobutyl)methanamine] | ≤ 1000 |  | 
CC1([C@H](N)c2cccc(-c3ccc4cnn(-c5cccc(CF)n5)c4c3)n2)CCC1 [Compound 35k, (S)-(6-(1-(6-(fluoromethyl)pyridin-2-yl)-1H-indazol-6-yl)pyridin-2-yl)(1-methylcyclobutyl)methanamine] | 1000 to 10000 |  | 
N#CC1CC([C@H](N)c2cccc(-c3ccc4cnn(-c5cccc(CF)n5)c4c3)n2)C1 (stereo partly drawn) [Compound 35l, (S)-3-(amino(6-(1-(6-(fluoromethyl)pyridin-2-yl)-1H-indazol-6-yl)pyridin-2-yl)methyl)cyclo butane-1-carbonitrile] | ≤ 1000 |  | 
